# Tests used:
# [1] = system: renal ischemia/reperfusion injury; settings: reported in Non-Patent Documents 3 and 4; cited from earlier work
# [2] = system: human ovarian cancer (MCAS); experiment: Example 12: FK330 with paclitaxel in MCAS tumor-bearing mice; format: in vivo, nude mice; settings: FK330 100 mg/kg bid p.o. + paclitaxel 10 mg/kg/day i.v. (5 days each cycle)
# Procedure: The dose of FK330 is expressed in terms of the weight of a simple substance (non-hydrate). Paclitaxel was purchased from LC Laboratories, Inc. (Woburn, Mass., USA), and was used as paclitaxel.
# FK330 was suspended (20 mg/mL) in a 0.5% aqueous methyl cellulose solution (0.5% MC), and was orally administered. Paclitaxel was prepared into a stock solution at 10 mg/mL with an ethanol/cremophor solution (mixed at 1:1), and then the stock solution was diluted to 1 mg/mL with physiological saline for injection (Otsuka Pharmaceutical Group) immediately before administration and was intravenously administered through the tail vein.
# Human ovary cancer-derived MCAS (JCRB0240) was obtained from Health Science Research Resources Bank (HSRRB) and used. The cells were cultured under the conditions of 37° C. and 5% CO2 by using EMEM medium containing 20% fetal bovine serum (FBS). […]
# The body weight and the tumor diameter, determined by using a digital caliper, were measured twice a week. The tumor volume was calculated from the calculation formula for ellipsoid volume of (major axis×[minor axis]^2×0.5).
# The results are expressed as the mean value (Mean)±standard error (SEM). […]
# [3] = molecular target: T1, purified pig brain-derived tubulin (Sus scrofa, UniProt P02550+P02554); experiment: Example 7: fluorescence-based assay of tubulin polymerization reaction; format: biochemical; settings: paclitaxel final concentration 3 μmmol/L; 60 minutes after initiation; P<0.05
# T1 construct: purified pig brain-derived tubulin (final concentration: 2 mg/mL); purchased Cytoskeleton, Inc. (Denver, Colo., USA); host or cells: pig brain (tissue-purified)
# Procedure: S-nitroso-N-acetyl-D,L-penicillamine (SNAP), which is a NO donor, was purchased from Cayman Chemical Co. (Ann Arbor, Mich., USA) and used. A tubulin polymerization analysis kit was purchased from Cytoskeleton, Inc. (Denver, Colo., USA) and used. For paclitaxel, a paclitaxel included in the analysis kit was used as paclitaxel. Docetaxel was purchased from Sigma-Aldrich Co. (St. Louis, Mo., USA) and was used as docetaxel.
# A fluorescence-based assay of tubulin polymerization reaction was carried out according to the manufacturer's instruction of the kit. That is, purified pig brain-derived tubulin (final concentration: 2 mg/mL) and SNAP (final concentration: 200 or 500 μmol/L) were incubated at room temperature for 15 minutes or longer in the buffer solution included in the kit. Subsequently, paclitaxel (final concentration: 3 μmmol/L) or docetaxel (final concentration: 1 μmol/L), and […] (final concentration: 1 mmol/L) were added to this buffer mixture, and then was incubated for 60 minutes at 37° C. During this incubation, the fluorescence intensity (measurement wavelength: excitation 350 nm/fluorescence 435 nm) was measured every one minute by using a microplate reader (Spectramax, Molecular Devices, LLC, Sunnyvale, Calif., USA). The value of fluorescence intensity was expressed as a percentage relative to the SNAP and taxane-untreated group by using the value obtained 60 minutes after the initiation of the reaction, which corresponded to the equilibrium steady-state phase, and the average value for three experiments was taken as the value.
# The results are expressed as the mean value (Mean)±standard error (SEM) of five independent experiments. A comparison between a paclitaxel- or docetaxel-treated group and an untreated group was carried out by an unpaired statistical test (Student's t-test) of the difference between two groups. A comparison between a SNAP-untreated group (control group) and SNAP-treated groups (200 μmol/L and 500 μmol/L) in the presence or absence of the taxane-family drugs was carried out by Dunnett's multiple comparison test. A difference value of less than 5% was considered to be statistically significant. For the data processing, Graphpad Prism version 5.03 was used.
# T1 sequence (P02554 whole entry): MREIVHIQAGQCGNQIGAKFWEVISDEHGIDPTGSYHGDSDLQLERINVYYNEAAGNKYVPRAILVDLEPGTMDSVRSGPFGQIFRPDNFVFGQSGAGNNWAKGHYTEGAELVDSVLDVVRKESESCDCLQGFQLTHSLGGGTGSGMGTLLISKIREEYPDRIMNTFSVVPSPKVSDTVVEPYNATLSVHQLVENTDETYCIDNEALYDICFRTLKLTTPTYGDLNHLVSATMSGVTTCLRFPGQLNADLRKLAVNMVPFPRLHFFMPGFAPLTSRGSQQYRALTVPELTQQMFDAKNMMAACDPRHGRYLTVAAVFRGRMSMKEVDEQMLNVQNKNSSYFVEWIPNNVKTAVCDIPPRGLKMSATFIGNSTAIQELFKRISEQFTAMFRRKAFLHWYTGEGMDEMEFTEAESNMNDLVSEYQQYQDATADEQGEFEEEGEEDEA
# T1 sequence (P02550 whole entry): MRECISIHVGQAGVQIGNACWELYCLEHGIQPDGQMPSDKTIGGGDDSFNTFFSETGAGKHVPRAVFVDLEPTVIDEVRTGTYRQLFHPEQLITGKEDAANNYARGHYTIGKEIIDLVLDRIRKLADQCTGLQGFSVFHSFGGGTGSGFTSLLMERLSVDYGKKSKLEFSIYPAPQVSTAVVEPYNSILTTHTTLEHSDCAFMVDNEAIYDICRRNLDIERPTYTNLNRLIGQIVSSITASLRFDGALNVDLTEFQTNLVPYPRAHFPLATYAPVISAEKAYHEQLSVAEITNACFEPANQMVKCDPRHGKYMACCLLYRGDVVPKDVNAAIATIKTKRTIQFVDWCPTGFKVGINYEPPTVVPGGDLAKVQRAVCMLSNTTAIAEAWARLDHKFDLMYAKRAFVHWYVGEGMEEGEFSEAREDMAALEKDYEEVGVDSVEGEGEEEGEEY
SMILES,efficacy for monkey renal ischemia/reperfusion injury [1],"tumor volume reduction ratio compared with the paclitaxel-only group ([2]; Day 63, no significant difference) [%]","tumor volume reduction ratio compared with the paclitaxel-only group ([2]; Day 91, P<0.05) [%]",tubulin polymerization (fluorescence intensity) as compared with the taxane-untreated group [3] [%]
"O=C(/C=C/c1ccc(Cl)cc1)N[C@@H](Cc1ccccn1)C(=O)NCC(=O)N1CCC(Oc2cc(C(F)(F)F)ncn2)CC1 [FK330, N^2-[(2E)-3-(4-chlorophenyl)-2-propenoyl]-N-[2-oxo-2-(4-{[6-(trifluoromethyl)pyrimidin-4-yl]oxy}piperidin-1-yl)ethyl]-3-pyridin-2-yl-L-alaninamide]",effective,61.5,86.0,
"CC(=O)O[C@H]1C(=O)[C@@]2(C)[C@H]([C@H](OC(=O)c3ccccc3)[C@]3(O)C[C@H](OC(=O)[C@H](O)[C@@H](NC(=O)c4ccccc4)c4ccccc4)C(C)=C1C3(C)C)[C@]1(OC(C)=O)CO[C@@H]1C[C@@H]2O [paclitaxel, reference compound]",,,,152.7

# From patent US20140066385A1, “METHOD FOR TREATING CANCER BY COMBINED USE OF DRUGS” (Astellas Pharma Inc., priority 2011, published 2014)
